The test system of this test is RSV-infected cells, CPE inhibition (cell viability). The test is described as follows: RSV cytopathic effect inhibitors, dose response, cell-based, synthesized compounds, set 6 (AID 504526).

Experimental findings from PubChem BioAssay AID504526 (Southern Research Specialized Biocontainment Screening …, 2011) are described below.

Where “and” joins values, the source holds several entries; their conditions need not be identical. Identical values can stand only once. Calls of active or inactive are those of the source. The rule behind the calls is not given here.

As for `Cc1ccc(Cl)cc1NC(=O)[C@@H]1CCCN1S(=O)(=O)c1cccc2cccnc12`, the IC50 is 0.22 µM.
Consider `O=C(O)C1CC=CCC1C(=O)Nc1ccc(S(=O)(=O)N2CCCc3ccccc32)cc1` (centres undefined), for which the IC50 is 31.4 µM.
Consider `COc1ccccc1CNC(=O)C1CCN(S(=O)(=O)c2cccc3scnc23)CC1`, for which the IC50 was > 50 µM (inactive).
Turning to `COc1cccc(CNC(=O)C2CCN(S(=O)(=O)c3cccc4nonc34)CC2)c1`, the IC50 is > 50 µM (inactive).
The value for `COc1ccc(C)cc1NC(=O)[C@@H]1CCCN1S(=O)(=O)c1cccc2cccnc12` was > 50 µM (inactive); that for `Cc1ccc(C(F)(F)F)cc1NC(=O)[C@@H]1CCCN1S(=O)(=O)c1cccc2cccnc12` was > 50 µM (inactive).
On to `COc1ccccc1CNC(=O)C1CCN(S(=O)(=O)c2cccc3cccnc23)CC1`, for which the IC50 is > 50 µM (inactive).
The same measure for `COc1ccccc1NCC(=O)Nc1cc(S(=O)(=O)N2CCOCC2)ccc1N1CCOCC1`: > 50 µM (inactive); for `COCCCNC(=O)c1ccc(Cn2c(=O)c3ccc(Cl)cc3n(Cc3ccc(C)cc3)c2=O)cc1`: > 50 µM (inactive).
`COc1ccccc1CNC(=O)C1CCN(S(=O)(=O)c2ccccc2)CC1`: the IC50 was > 50 µM (inactive).
The same measure for `Cc1ccc(C)c(NC(=O)[C@@H]2CCCN2S(=O)(=O)c2cccc3cccnc23)c1`: 5.1 µM; for `Cc1ccc(C(C)(C)C)cc1NC(=O)[C@@H]1CCCN1S(=O)(=O)c1cccc2cccnc12`: > 50 µM (inactive).
`COc1ccccc1CNC(=O)[C@@H]1CCCN1S(=O)(=O)c1cccc2cccnc12`: the IC50 was 18.8 µM.
Turning to `Cc1ccc(Cl)c(NC(=O)[C@@H]2CCCN2S(=O)(=O)c2cccc3cccnc23)c1`, the IC50 was > 50 µM (inactive).
In the case of `Cc1cccc(C)c1NC(=O)[C@@H]1CCCN1S(=O)(=O)c1cccc2cccnc12`, the IC50 is 34.6 µM.
On to `COc1ccc(CNC(=O)C2CCN(S(=O)(=O)c3cccc4nonc34)CC2)cc1`, for which the IC50 is > 50 µM (inactive).
The value for `COc1ccccc1CNC(=O)C1CCN(Cc2cccc3nonc23)CC1` was > 50 µM (inactive).
The value for `O=C(NCc1ccccc1Cl)C1CCN(S(=O)(=O)c2cccc3nonc23)CC1` was 6.9 µM.
The value for `COc1ccc(C)c(NC(=O)[C@@H]2CCCN2S(=O)(=O)c2cccc3cccnc23)c1` was 3.51 µM; that for `COCCCNC(=O)c1ccc(Cn2c(=O)c3ccccc3n(Cc3ccccc3)c2=O)cc1` was > 50 µM (inactive); that for `Cc1ccccc1CNC(=O)C1CCN(S(=O)(=O)c2cccc3nonc23)CC1` was > 50 µM (inactive).
As to `Cc1ccc(C(C)C)cc1NC(=O)[C@@H]1CCCN1S(=O)(=O)c1cccc2cccnc12`, the IC50 is > 50 µM (inactive).
As to `COCCNC(=O)c1ccc(Cn2c(=O)c3ccccc3n(Cc3ccc(C)cc3)c2=O)cc1`, the half-maximal inhibitory concentration (IC50) was 2.32 µM.
The value for `COc1ccccc1CNC(=O)C1CCN(S(=O)(=O)c2cccc3nonc23)CC1` was 3.6 µM and 4.7 µM.
